Data on 1 compound can be found in patent US20220323472A1, “ANTI-PARASITIC COMPOUNDS FOR THE TREATMENT AND PREVENTION OF VIRAL DISEASES” (priority 2021, published 2022).

The test system of the assay is Demodex mites. Kind of assay: in vitro Demodex survival time assay (LT50). On the procedure:
FIG. 4 summarizes the activity of 10% chloroquine in water relative to a water control on activity against Demodex mites in an in vitro assay, with an LT5o of 31.6 hours for chloroquine compared to 44.8 hours for the water control, illustrating the inactivation effect of chloroquine on Demodex.
Accordingly, chloroquine and ivermectin may be used to treat SAR-CoV-2 by reducing the microbial load or Demodex population of a patient suffering from viral infection.
In vitro efficacy and mite lifetimes: Relative efficacy of various formulations are evaluated with a demodex survival time experiments. FIG. 3 tabulates demodex survival time, expressed in terms of LT50 (time at which 50% of demodex mites are killed) and/or average minutes to death for various active agents.

Each structure is given as a SMILES string.

On to `CCN(CC)CCCC(C)Nc1ccnc2cc(Cl)ccc12` (centres unmarked) [chloroquine], for which the “LT50 (time at which 50% of demodex mites are killed)” value (10% chloroquine in water, in vitro assay, water control 44.8 hours) was determined as 31.6 h. The “ex-vivo activity against Demodex mites” value (in vitro assay (FIGS. 3 and 4)) is recorded as “some ex-vivo activity”.
